Results reported in patent US20190365700A1, “Methods for Isolating Tumor-Specific Immune Cells from a Subject for Adoptive Cell Therapy and Cancer Vaccines” (CRITITECH, INC., priority 2018, published 2019).
≈ marks a conversion by molar mass, not a printed value. Where “and” joins values, the source holds several entries; their conditions need not be identical. Equal values may be shown once. Marks after values point to notes of the source that are not given here.

How the values were obtained:
[1] = test system: human renal cell adenocarcinoma (786-O cell line); test: Renal cell adenocarcinoma xenograft: histology and IHC (viable carcinoma size, necrosis, lymphohistiocytic infiltrate); assay type: in vivo, Sprague-Dawley Rag2; Il2rg null (SRG®) rat
Source text: Microscopic Examination: Tissues fixed with 10% NBF were embedded in paraffin. Each tumor was cut into 2-3 pieces and embedded and sectioned together.

[2] = test system: immune cells (CD45+, CD4+, CD8+, Treg, MDSC, M1 and M2 macrophages) in blood; test: Renca study: flow cytometry of immune cells in blood; assay type: in vivo, female BALB/c mice; conditions: IV Docetaxel, individual animals
Procedure: Blood Collection: Collected full volume blood by terminal cardiac puncture under isoflurane anesthesia. Processed blood for: Whole Blood: anti-coagulant—K2EDTA, preservation—Cooled 4° C., shipping condition—4° C. (wet ice). Retained at CRL-NC for flow cytometry. See Flow panel in Table 40 below.
(§1) Peripheral blood and tumor tissue were collected for analysis via flow cytometry. Cell types analyzed included T-Cells: CD4+, CD8+(Tumor Suppression); Treg (Tumor Promotion); M1 Macrophages (Tumor Suppression); M2 Macrophages (Tumor Promotion); and […].

[3] = test system: Renca syngeneic renal carcinoma
Source text: Animals were monitored as a group. […] When the endpoint was reached, all the animals were euthanized. […]

[4] = test system: human renal cell adenocarcinoma (786-O cell line); test: Rat xenograft model of human renal cell adenocarcinoma: tumor volume, body weight, observations; assay type: in vivo, Sprague-Dawley Rag2; Il2rg null (SRG®) rat; conditions: IV docetaxel, 3 weekly cycles
[5] = test system: UM-UC-3 bladder cancer cell line (ATCC-CRL-1749) tumors; test: Human bladder cancer (UM-UC-3) mouse xenograft study: tumor volume, body weight, observations; assay type: in vivo, Hsd:Athymic Nude-Foxnlnu nude mice
Procedure: Tumor volume was determined with calipers. […] Animals were weighed 2×/week.
At day 18 after tumor implant, when average tumor size was between 50-325 mm^3, animals were sorted into five groups with equal average tumor sizes and were treated as shown in Table 25 below.
The second treatments (2nd cycle) occurred 7 days following first treatment (1st cycle) and third treatments (3rd cycle) occurred 14 days following the first treatment. The docetaxel solution IV was administered via the tail vein.
Vehicle (Control): Diluted 1 ml of the 1% Polysorbate 80/8% Ethanol in normal saline (0.9% Sodium Chloride for Injection) reconstitution solution with 1.5 mL of normal saline (0.9% Sodium Chloride for Injection, USP). […] Vigorously hand shook the vial with inversions for 1 minute. […] Allowed the suspension to sit undisturbed for at least 5 minutes to reduce entrapped air and foam. […] Vortexed to mix.

[6] = test system: Renca syngeneic renal carcinoma; test: Renca syngeneic xenograft study: secondary tumor growth (groups 8-10); assay type: in vivo, female BALB/c mice; conditions: IV docetaxel doses
Procedure: The schedule in Table 39 was followed.
Cell Injection Volume: 0.1 mL/mouse. Age at Start Date: 8 to 12 weeks. […] Body Weight: 5/2 then tiwk to end. Caliper Measurement: tiwk to end. Double caliper measurements were performed for Groups 8-10. […] The group was not euthanized and recovery was allowed.
Endpoints: Groups 1-7: Endpoint TGI. Animals were monitored as a group.

[7] = test system: UM-UC-3 bladder cancer cell line (ATCC-CRL-1749) tumors; test: Bladder cancer xenograft: histology and IHC (viable carcinoma size, necrosis, macrophage infiltrate, TLS, necropsy volume); assay type: in vivo, Hsd:Athymic Nude-Foxnlnu nude mice
[8] = test system: immune cells (CD45+, CD4+, CD8+, Treg, MDSC, M1 and M2 macrophages) in tumor tissue; test: Renca study: flow cytometry of immune cells in tumor tissue; assay type: in vivo, female BALB/c mice; conditions: individual animals, IV docetaxel group
Procedure: Organ Collection: Tumor (divide into 2 parts). […] Sent to laboratory for IHC staining. Part 2: preservation—processed to single cell suspension, shipping condition—4° C. (wet ice). Retained at CRL-NC for flow cytometry. See Flow panel in Table 40 below. Tumor preservation for early euthanasia in Groups 2-10: Excised tumor and surrounding area from the mammary fat pad area (cranial) to just past tumor (caudal). The region included the inguinal lymph node. Sectioned this sample every 4 mm from the cranial to caudal end and enclosed in separate cassettes labeled in order.
as §1

[9] = Solubility of the active in receptor fluid; assay type: physicochemical; conditions: 96 wt % PBS pH 7.4 and 4 wt % HPBCD
Procedure: The receptor fluid was degassed by filtering the receptor fluid through a ZapCap CR 0.2 μm membrane while pulling vacuum. The filtered receptor fluid was stirred for an additional 20 minutes while maintaining vacuum to ensure complete degassing.

[10] = IV Docetaxel 3 cycles, 2 animals
[11] = IV docetaxel 3 cycles, two cases

Compound: CC(=O)O[C@@]12CO[C@@H]1C[C@H](O)[C@@]1(C)C(=O)[C@H](O)C3=C(C)[C@@H](OC(=O)[C@H](O)[C@@H](NC(=O)OC(C)(C)C)c4ccccc4)C[C@@](O)([C@@H](OC(=O)c4ccccc4)[C@H]21)C3(C)C [Doce]
- Number of animals with <5% of tissue showing necrosis ([1]; IV docetaxel, 2 animals): 2
- Lymphohistiocytic infiltrate density: number of animals graded Mild ([1]; IV docetaxel, 2 animals, H/E and CD11b IHC): 2

Compound: CC(=O)O[C@@]12CO[C@@H]1C[C@H](O)[C@@]1(C)C(=O)[C@H](O)C3=C(C)[C@@H](OC(=O)[C@H](O)[C@@H](NC(=O)OC(C)(C)C)c4ccccc4)C[C@@](O)([C@@H](OC(=O)c4ccccc4)[C@H]21)C3(C)C [docetaxel]
- CD8 (% of CD45) [2]: 1.18 % of CD45 and 1.46 % of CD45 and 1.58 % of CD45 and 1.55 % of CD45 and 1.59 % of CD45 and 0.55 % of CD45 and 1.28 % of CD45 and 1.03 % of CD45 and 1.02 % of CD45 and 0.73 % of CD45
- CD8 Count [2]: 17438 and 12556 and 18524 and 4199 and 7615 and 8711 and 14504 and 9765 and 8882 and 12561
- CD45 (% of Live) [2]: 98.5 % of Live and 80.9 % of Live and 97.9 % of Live and 95.7 % of Live (2×) and 96.1 % of Live and 95.5 % of Live and 95.6 % of Live and 97 % of Live and 96.4 % of Live
- CD45 Count [2]: 1360000 (2×) and 1180000 and 1200000 and 1010000 and 348468 and 983000 and 1340000 and 1210000 and 968000
- Conv CD4 (% of CD45) [2]: 2.49 % of CD45 and 3.95 % of CD45 and 3.1 % of CD45 and 2.64 % of CD45 and 2.38 % of CD45 and 1.58 % of CD45 and 3.25 % of CD45 and 1.32 % of CD45 and 2.46 % of CD45 and 1.77 % of CD45
- Conv CD4 Count [2]: 44244 and 33048 and 31633 and 9629 and 12646 and 22949 and 34177 and 22034 and 21457 and 27808
- Live Count [2]: 1420000 and 1220000 and 1250000 and 1030000 and 350478 and 1390000 and 1010000 and 1360000 and 1260000 and 997000
- M1 Mac (% of CD45) [2]: 15.1 % of CD45 and 9.39 % of CD45 and 12.3 % of CD45 and 6.95 % of CD45 and 7.96 % of CD45 and 6.79 % of CD45 and 9.93 % of CD45 and 10.7 % of CD45 and 9.78 % of CD45 and 9.15 % of CD45
- M1 Mac Count [2]: 135234 and 150642 and 83214 and 124451 and 18526 and 145555 and 84022 and 122157 and 110868 and 43948
- M2 Mac (% of CD45) [2]: 0.12 % of CD45 and 0.054 % of CD45 and 0.066 % of CD45 and 0.14 % of CD45 and 0.17 % of CD45 and 0.2 % of CD45 and 0.056 % of CD45 and 0.48 % of CD45 and 0.07 % of CD45 and 0.19 % of CD45
- M2 Mac Count [2]: 765 and 815 and 1633 and 582 and 373 and 875 and 257 and 2069 and 2323 and 512
- MDSC (% of CD45) [2]: 72.7 % of CD45 and 64.8 % of CD45 and 63.3 % of CD45 and 75.9 % of CD45 and 72.8 % of CD45 and 79 % of CD45 and 73.4 % of CD45 and 72.5 % of CD45 and 77.7 % of CD45 and 76.3 % of CD45
- MDSC Count [2]: 1000000 (2×) and 871000 and 909000 and 742000 and 255851 and 734000 (2×) and 1010000 and 925000
- Treg (% of CD45) [2]: 0.092 % of CD45 and 0.22 % of CD45 and 0.13 % of CD45 and 0.073 % of CD45 and 0.035 % of CD45 and 0.078 % of CD45 and 0.087 % of CD45 and 0.047 % of CD45 and 0.1 % of CD45 and 0.071 % of CD45
- Treg Count [2]: 1182 and 578 and 872 and 461 and 222 and 871 and 1300 and 870 and 856 and 992
- tumor volume compared to vehicle ([3]; IV docetaxel Day 1 (10 mg/kg) and Day 11 (5 mg/kg)): No difference
- toxicity leading to modified administration schedule ([3]; mouse, in vivo, iv): systemic toxicity
- tumor growth compared to vehicle control [4]: partial tumor growth inhibition
- histology vs vehicle control (H&E) ([1]; Docetaxel (IV) 3 cycles, female rat): no difference
- Number of animals with residual viable carcinoma >10 mm on slide ([1]; IV docetaxel, 2 animals): 2
- tumor volumes ([5]; Docetaxel IV 30 mg/kg, 3 cycles, 61 days): decreased initially
- effectiveness by initial tumor size ([5]; Docetaxel IV 3 cycles): somewhat effective at treating small tumors, but not very effective in treating large tumors
- initial animal weight loss ([5]; Docetaxel IV 3 cycles vs nDoce IT 1, 2, 3 cycles): generally greater
- signs of peripheral neuropathy ([5]; Docetaxel IV 3 cycles vs nDoce IT 3 cycles): greater signs of peripheral neuropathy
- growth rate of the secondary Renca tumors [6]: did not reduce the growth rate
- general histological observation (H&E) ([7]; Docetaxel Solution IV 3 cycles): many viable appearing tumor masses with some macrophage and occasional lymphocytic response along with some tumor necrosis
- animals with 11-50% of tumor showing necrosis [7, 10]: 1
- animals with 50-90% of tumor showing necrosis [7, 10]: 1
- animals with maximum size of viable invasive carcinoma on the slide >10 mm [7, 10]: 2*
- Macrophage infiltrate density: number of animals graded Mild ([7]; IV Docetaxel 3 cycles, surrounding non-neoplastic tissue, H&E and CD68 IHC): 2
- TLSs [7, 11]: no TLSs present
- tumor masses, maximum dimension on the slide [7, 11]: 11 mm and 15 mm
- CD8 (% of CD45) [8]: 0.75% and 0.5% and 0.28% and 0.31% (2×) and 0.061% and 0.32% and 0.45% and 0.81% and 0.33%
- CD8 Count [8]: 33 and 40 and 26 and 193 and 9 and 145 and 36 and 214 and 137 and 270
- CD45 (% of Live) [8]: 38.2% and 42.8% and 52.7% and 68.9% and 74.1% and 57.8% and 32.5% and 63.3% and 73% and 67.2%
- CD45 Count [8]: 4375 and 8052 and 9275 and 62614 and 14728 and 45332 and 8088 and 26310 and 41555 and 86029
- Conv CD4 (% of CD45) [8]: 1.23% and 1.15% and 1.51% and 0.44% and 0.16% and 0.58% and 0.62% and 2.55% and 1.65% and 0.59%
- Conv CD4 Count [8]: 54 and 93 and 140 and 275 and 23 and 265 and 50 and 670 and 687 and 509
- Live Count [8]: 11443 and 18796 and 17590 and 90940 and 19863 and 78365 and 24901 and 41595 and 56947 and 128055
- M1 Mac (% of CD45) [8]: 10.5% and 6.97% and 8.59% and 8.44% and 3.34% and 9.16% and 8.65% and 7.47%
- M1 Mac Count [8]: 460 and 561 and 797 and 5285 and 492 and 4154 and 700 and 3186 and 5446 and 6428
- M2 Mac (% of CD45) [8]: 28% and 25.2% and 18.6% and 25.3% and 2.66% and 54.1% and 8.62% and 26.9% and 52.8% and 67.2%
- M2 Mac Count [8]: 1223 and 2030 and 1727 and 15846 and 392 and 24543 and 697 and 7074 and 21953 and 57825
- MDSC (% of CD45) [8]: 25.1% and 32.8% and 42.5% and 44% and 83.3% and 20% and 70.4% and 37.3% and 10.4%
- MDSC Count [8]: 1098 and 2644 and 3940 and 27578 and 12265 and 9063 and 5696 and 9821 and 4302 and 11067
- Treg (% of CD45) [8]: 1.58% and 0.55% and 0.32% and 0.62% and 0.16% and 0.54% and 0.21% and 1.05% and 0.42% and 0.6%
- Treg Count [8]: 69 and 44 and 30 and 386 and 23 and 244 and 17 and 276 and 176 and 520

Compound: CC(=O)O[C@H]1C(=O)[C@@]2(C)[C@H]([C@H](OC(=O)c3ccccc3)[C@]3(O)C[C@H](OC(=O)[C@H](O)[C@@H](NC(=O)c4ccccc4)c4ccccc4)C(C)=C1C3(C)C)[C@]1(OC(C)=O)CO[C@@H]1C[C@@H]2O [paclitaxel]
- solubility in the receptor fluid [9]: ~0.4 µg/mL (≈ 0.468 µM)
